Source: patent publication US20200270647A1, “TRANSGENIC STRAIN FOR PRODUCING SUCCINATE AND METHOD FOR PRODUCING SUCCINATE” (NATIONAL CHIAO TUNG UNIVERSITY, priority 2019, published 2020)

Tested on: PCC7942 cyanobacterium strain
Method: The bacterium amount (cell amount) was monitored by measuring the optical density (OD) of the culture medium at a wavelength of 730 nm using the Biotek epoch 2 microplate spectrophotometer. The OD730 is calculated based on a recalibration of an optical path length 1 cm.

Row | Structure (SMILES) | growth inhibition effect on the cyanobacterium strain (wild-type PCC7942 in BG-11, different concentrations, cell density observed for three days, versus sodium chloride with same sodium concentration) | toxicity to the growth or persistence of the cyanobacterium strain
1 | O=C([O-])CCC(=O)[O-].[Na+].[Na+] [disodium succinate] | almost equivalent to the growth inhibition effect of sodium chloride | –
2 | O=C(O)CCC(=O)O [succinate] | – | not toxic
